Experimental data reported in patent US7560466B2, “Methods of treating or preventing autoimmune diseases with 2,4-pyrimidinediamine compounds” (Rigel Pharmaceuticals, Inc., priority 2003, dated 2009).
Where two headings read alike, the source gives them in different places.

What was measured:
[1] = tested on: cultured human mast cells (CHMC), ionomycin-induced degranulation; assay: CHMC low cell density ionomycin activation: tryptase assay; type: cell-based; conditions: ionomycin activation, 3pt, read-out: LD Tryptase, CHMC, Iono, 3pt
[2] = tested on: cultured human mast cells (CHMC), IgE-induced degranulation; assay: CHMC low cell density IgE activation: tryptase assay; type: cell-based
How it was run: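 Tryptase release read fluorogenically (30 min, room temperature) from supernatants of anti-IgE-challenged cultured human mucosal mast cells derived from umbilical cord CD34+ cells, at low density of 1000–1500 cells/well.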

[3] = low cell density CHMC, 3pt, read-out: LD Tryptase, CHMC, IgE, 3pt
[4] = low cell density CHMC, 8pt, read-out: LD Tryptase, CHMC, IgE, 8pt
[5] = CHMC low cell density, 3pt, read-out: LD Tryptase, CHMC, IgE, 3pt
[6] = CHMC low cell density, 8pt, read-out: LD Tryptase, CHMC, IgE, 8pt

Row | Compound | IC50 ([1]; low cell density CHMC) [µM] | IC50 [2, 3] [µM] | IC50 [2, 4] [µM] | IC50 ([1]; CHMC low cell density) [µM] | IC50 [2, 5] [µM] | IC50 [2, 6] [µM]
1 | Fc1cnc(Nc2cccc(-c3cnco3)c2)nc1Nc1ccc2c(c1)NCCO2 [Compound 232, N4-(3,4-Dihydro-2H,4H-benz[1,4]oxazin-6-yl)-5-fluoro-N2-[3-(oxazol-5-yl)phenyl]-2,4-pyrimidinediamine] | > 10 | < 10 | < 10 | – | – | –
2 | CC1(C)COc2ccc(Nc3nc(Nc4cccc(-c5cnco5)c4)ncc3F)cc2N1 [Compound 233, N4-(3,4-Dihydro-3,3-dimethyl-2H,4H-benz[1,4]oxazin-6-yl)-5-fluoro-N2-[3-(oxazol-5-yl)phenyl]-2,4-pyrimidinediamine] | > 10 | < 10 | < 10 | – | – | –
3 | CC1(C)COc2ccc(Nc3nc(Nc4ccc(-c5ncco5)cc4)ncc3F)cc2N1 [Compound 238, N4-(3,4-Dihydro-3,3-dimethyl-2H,4H-benz[1,4]oxazin-6-yl)-5-fluoro-N2-[4-(oxazol-2-yl)phenyl]-2,4-pyrimidinediamine] | > 10 | < 10 | < 10 | – | – | –
4 | CN1CCOc2ccc(Nc3nc(Nc4ccc(-c5ncco5)cc4)ncc3F)cc21 [Compound 243, N4-(2,3-Dihydro-4-methyl-2H-benz[1,4]oxazin-6-yl)-5-fluoro-N2-[4-(oxazol-2-yl)phenyl]-2,4-pyrimidinediamine] | > 10 | < 10 | < 10 | – | – | –
5 | COc1cc(Nc2ncc(F)c(Nc3ccc4c(c3)NCC(CCO)O4)n2)cc(OC)c1 (centres unmarked) [Compound 253, N4-[3,4-Dihydro-2-(2-hydroxyethyl)-2H,4H-benz[1,4]oxazin-6-yl]-N2-(3,5-dimethoxyphenyl)-5-fluoro-2,4-pyrimidinediamine] | > 10 | < 10 | < 10 | – | – | –
6 | CNC(=O)COc1cccc(Nc2ncc(F)c(Nc3ccc4c(c3)NC(=O)CS4)n2)c1 [Compound 254, 5-Fluoro-N2-[3-(N-methylamino)carbonylmethyleneoxyphenyl]-N4-(3-oxo-2H,4H-benzo[1,4]thiazin-6-yl)-2,4-pyrimidinediamine] | > 10 | < 10 | < 10 | – | – | –
7 | Cc1cc(C)cc(Nc2ncc(F)c(Nc3ccc4c(c3)NCC(CCO)O4)n2)c1 (centres unmarked) [Compound 255, N4-[2,3-Dihydro-2-(2-hydroxyethyl)-2H,4H-benz[1,4]oxazin-6-yl]-N2-(3,5-dimethylphenyl)-5-fluoro-2,4-pyrimidinediamine] | > 10 | < 10 | < 10 | – | – | –
8 | CNC(=O)COc1cccc(Nc2ncc(F)c(Nc3ccc4c(c3)NCCS4)n2)c1 [Compound 258, N4-(3,4-Dihydro-2H,4H-benzo[1,4]thiazin-6-yl)-5-fluoro-N2-[3-(N-methylamino)carbonylmethyleneoxyphenyl]-2,4-pyrimidinediamine] | > 10 | < 10 | < 10 | – | – | –
9 | CNC(=O)COc1cccc(Nc2ncc(F)c(Nc3ccc4c(c3)N(C)C(=O)CS4)n2)c1 [Compound 259, 5-Fluoro-N2-[3-(N-methylamino)carbonylmethyleneoxyphenyl]-N4-(4-methyl-3-oxo-2H-benzo[1,4]thiazin-6-yl)-2,4-pyrimidinediamine] | > 10 | < 10 | < 10 | – | – | –
10 | NC(=S)c1cccc(Nc2ncc(F)c(Nc3ccc4c(c3)NC(=O)CO4)n2)c1 [Compound 261, N2-(3-Benzothioamide)-5-fluoro-N4-(3-oxo-2H,4H-benz[1,4]oxazin-6-yl)-2,4-pyrimidinediamine] | > 10 | < 10 | – | – | – | –
11 | NC(=S)c1cccc(Nc2ncc(F)c(Nc3ccc4c(c3)NC(=O)C(CCO)O4)n2)c1 (centres unmarked) [Compound 262, N2-(3-Benzothioamide)-5-fluoro-N4-[2-(2-hydroxyethyl)-3-oxo-2H,4H-benz[1,4]oxazin-6-yl]-2,4-pyrimidinediamine] | > 10 | < 10 | – | – | – | –
12 | CNC(=O)COc1cccc(Nc2ncc(F)c(N(C)c3ccc4c(c3)OCCO4)n2)c1 [Compound 385, N4-(3,4-Ethylenedioxyphenyl)-5-fluoro-N4-methyl-N2-[3-(N-methylamino)carbonylmethyleneoxyphenyl]-2,4-pyrimidinediamine] | – | – | – | > 10 | < 10 | < 10
13 | CC(=O)N1CCN(c2cccc(Nc3ncc(F)c(Nc4ccc5c(c4)OC(F)(F)C(F)(F)O5)n3)c2)CC1 [Compound 431] | – | – | – | > 10 | < 10 | < 10
14 | CC(=O)N1CCN(c2ccc(Nc3ncc(F)c(Nc4ccc5c(c4)OC(F)(F)C(F)(F)O5)n3)cc2)CC1 [Compound 432] | – | – | – | > 10 | < 10 | –
15 | CNC(=O)COc1cccc(Nc2ncc(F)c(N(CC(=O)OC)c3ccc4c(c3)OCCO4)n2)c1 [Compound 446, N4-(3,4-Ethylenedioxyphenyl)-5-fluoro-N4-(methoxycarbonylmethyl)-N2-[3-(N-methylamino)carbonylmethyleneoxyphenyl]-2,4-pyrimidinediamine] | – | – | – | > 10 | < 10 | –

More lines, now with the values ahead:

Row | IC50 ([1]; low cell density CHMC) [µM] | IC50 [2, 3] [µM] | IC50 [2, 4] [µM] | IC50 ([1]; CHMC low cell density) [µM] | IC50 [2, 5] [µM] | IC50 [2, 6] [µM] | Compound
16 | – | – | – | > 10 | < 10 | – | CNC(=O)c1cc(Nc2ncc(F)c(N(C)c3ccc4c(c3)OCCO4)n2)ccc1Cl [Compound 453, N2-[4-Chloro-3-(N-methylamino)carbonylphenyl]-N4-(3,4-ethylenedioxyphenyl)-5-fluoro-N4-methyl-4-pyrimidinediamine]
17 | – | – | – | > 10 | > 10 | – | CN(C)c1ncc(F)c(N(C)c2ccc3c(c2)OCCO3)n1 [Compound 462, N2-Dimethyl-N4-(3,4-ethylenedioxyphenyl)-5-fluoro-N4-methyl-2,4-pyrimidinediamine]
18 | – | – | – | < 10 | < 10 | < 10 | CNS(=O)(=O)c1ccc(Nc2ncc(F)c(Nc3ccc4c(c3)NC(=O)C(C)(C)O4)n2)cc1OC [Compound 496, N4-(2,2-Dimethyl-3-oxo-4H-benz[1,4]oxazin-6-yl)-5-fluoro-N2-[3-methoxyphenyl-4-(methylamino)sulfonyl]-2,4-pyrimidinediamine]
19 | – | – | – | < 10 | < 10 | < 10 | CNC(=O)COc1c(C)cc(Nc2ncc(F)c(N(C)c3ccc4c(c3)OCCO4)n2)cc1C [Compound 635, N2-[3,5-Dimethyl-4-(N-methylamino)carbonylmethyleneoxyphenyl]-N4-(3,4-ethylenedioxyphenyl)-5-fluoro-N4-methyl-2,4-pyrimidinediamine]
20 | – | – | – | < 10 | < 10 | < 10 | CNC(=O)COc1c(C)cc(Nc2ncc(F)c(N(C)c3ccc4c(c3)OC(F)(F)C(F)(F)O4)n2)cc1C [Compound 636, N2-[3,5-Dimethyl-4-(N-methylamino)carbonylmethyleneoxyphenyl]-5-fluoro-N4-methyl-N4-[3,4-(tetrafluoroethylenedioxy)phenyl]-2,4-pyrimidinediamine]
21 | – | – | – | > 10 | < 10 | – | CNC(=O)COc1c(C)cc(Nc2ncc(F)c(Nc3ccc4c(c3)OC(F)(F)C(F)(F)O4)n2)cc1C [Compound 637, N2-[3,5-Dimethyl-4-(N-methylamino)carbonylmethyleneoxyphenyl]-5-fluoro-N4-[3,4-(tetrafluoroethylenedioxy)phenyl]-2,4-pyrimidinediamine]
22 | – | – | – | > 10 | < 10 | < 10 | COC(=O)Cn1ccc2ccc(Nc3ncc(F)c(Nc4ccc5c(c4)NC(=O)C(C)(C)O5)n3)cc21 [Compound 639, N4-(2,2-Dimethyl-3-oxo-4H-benz[1,4]oxazin-6-yl)-5-fluoro-N2-[1-(methoxycarbonylmethylene)indol-6-yl]-2,4-pyrimidinediamine]
23 | – | – | – | > 10 | < 10 | < 10 | COC(=O)Cn1ccc2ccc(Nc3ncc(F)c(Nc4ccc5c(c4)OCCO5)n3)cc21 [Compound 642, N4-(3,4-Ethylenedioxyphenyl)-5-fluoro-N2-[1-(methoxycarbonylmethylene)indol-6-yl]-2,4-pyrimidinediamine]
24 | – | – | – | > 10 | < 10 | < 10 | COC(=O)Cn1ccc2cc(Nc3ncc(F)c(Nc4ccc5c(c4)NC(=O)C(C)(C)O5)n3)ccc21 [Compound 643, N4-(2,2-Dimethyl-3-oxo-4H-benz[1,4]oxazin-6-yl)-5-fluoro-N2-[1-(methoxycarbonylmethylene)indol-5-yl]-2,4-pyrimidinediamine]
25 | – | – | – | > 10 | < 10 | < 10 | COC(=O)Cn1ccc2cc(Nc3ncc(F)c(Nc4ccc5c(c4)OCCO5)n3)ccc21 [Compound 647, N4-(3,4-Ethylenedioxyphenyl)-5-fluoro-N2-[1-(methoxycarbonylmethylene)indol-5-yl]-2,4-pyrimidinediamine]
26 | – | – | – | > 10 | < 10 | < 10 | CNC(=O)Cn1ccc2ccc(Nc3ncc(F)c(Nc4ccc5c(c4)OCCO5)n3)cc21 [Compound 649, N4-(3,4-Ethylenedioxyphenyl)-5-fluoro-N2-[1-(N-methylamino)carbonylmethyleneindol-6-yl]-2,4-pyrimidinediamine]
27 | – | – | – | > 10 | < 10 | < 10 | CC1(C)Oc2ccc(Nc3nc(Nc4ccc5c(cnn5CCCNS(C)(=O)=O)c4)ncc3F)nc2NC1=O [Compound 836, N4-(2,2-Dimethyl-3-oxo-4H-5-pyrid[1,4]oxazin-6-yl)-5-fluoro-N2-[1-[3-(N-methylsulfonylamino)propyl]indazol-5-yl]-2,4-pyrimidinediamine]
28 | – | – | – | > 10 | < 10 | < 10 | Cc1cc(Nc2ncc(F)c(Nc3ccc4c(n3)NC(=O)C(C)(C)O4)n2)cc(Cl)c1O [Compound 996, N2-(3-Chloro-4-hydroxy-5-methylphenyl)-N4-(2,2-dimethyl-3-oxo-4H-5-pyrid[1,4]oxazin-6-yl)-5-fluoro-2,4-pyrimidinediamine]
